Common to all, as to type: biochemical
The target in one assay is T1, HGFA (Homo sapiens, UniProt Q04756).
T1 construct: His6 tag (N); seven amino acid spacer and seven amino acid TEV cleavage site (N); Honey Bee melittin signal peptide (N); made in house; host or cells: High 5 insect cells (baculovirus; virus raised in Sf9)
T1 sequence (Q04756 373-655): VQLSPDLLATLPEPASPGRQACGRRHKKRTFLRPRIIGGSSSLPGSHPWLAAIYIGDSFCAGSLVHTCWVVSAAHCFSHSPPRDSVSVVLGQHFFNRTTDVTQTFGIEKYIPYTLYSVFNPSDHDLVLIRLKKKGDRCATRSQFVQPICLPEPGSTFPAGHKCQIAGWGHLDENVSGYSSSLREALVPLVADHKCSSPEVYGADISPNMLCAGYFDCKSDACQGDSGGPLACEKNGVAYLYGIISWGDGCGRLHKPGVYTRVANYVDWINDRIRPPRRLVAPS
Briefly: Fluorescent kinetic enzyme inhibitor assay of HGFA. The conditions noted are these: read-out: HGFA Ki. From the text:
Using primers identified as SEQ ID NO 1, SEQ ID NO 2, and standard PCR protocols, the nucleotide sequence encoding amino acids 373-655 of HGFA was synthesized. This PCR product was cloned into the SfoI-HindIII sites of a modified pFastBac HT baculovirus expression vector (Addgene, Cambridge, Mass.). This vector contains a six amino His tag followed by a seven amino spacer and a seven amino acid TEV cleavage site placed immediately downstream of the Honey Bee melittin signal peptide. Using a modified Bac to Bac Expression System (Life Technologies, Carlsbad, Calif.), recombinant HGFA bacmids were obtained by transforming DH10Bac Escherichia coli cells. To obtain HGFA containing baculovirus, purified bacmids were transfected into Sf9 insect cells. After 5 days in culture at 27° C., media was harvested from transfected Sf9 cells. This media was used to prepare baculovirus infected insect cells (BIICs). These BIIICs were used to infect High 5 insect cells. Four days post infection, media was harvested and recombinant protein prepared as follows. Media was chilled to 4° C. and spun at 4000×g for 20 minutes (all subsequent steps were performed at 4° C. unless noted). Clarified media was passed first through a Whatman GF/B 1 um (#1821-047, GE Healthcare Life Sciences, Piscataway, N.J.) and then a 0.22 um PES membrane (#99955, TPP Techno Plastic Products AG, Trasadingen, Switzerland) and then concentrated using a Pall Centramate tangential flow system and Centramate T-series Cassette (#OS010T12, Pall Corporation, Port Washington, N.Y.). Concentrated media was then buffer exchanged in two steps, five volumes of 50 mM Na-phosphate, 500 mM NaCl, pH 6.2, followed by five volumes of 50 mM Na-phosphate, 500 mM NaCl, pH 7.5. The concentrated and buffered exchanged insect cell media was again filtered as above and made 25 mM imidazole (#1202, Sigma-Aldrich, St. Louis, Mo.) and was mixed with nickel agarose beads (#H-321-25, Gold Biotechnology, Inc., St. Louis Mo.). After mixing this slurry for 12 hours, nickel agarose beads were allowed to settle by gravity and then loaded into a column. Beads were washed with buffer (25 mM Na-phosphate, 500 mM NaCl, 25 mM imidazole, pH 8) and the bound protein eluted using (25 mM Na-phosphate, 500 mM NaCl, 250 mM imidazole, pH 8). Using a Amicon Ultra-4 Centrifugal filters (#UFC801008, Merck Millipore, Ltd., Tullagreen, Ireland), peak protein fractions were concentrated and run over a Superdex-200 10/300 GL column (GE Healthcare Life Sciences, Piscataway, N.J.) in 10 mM Tris, 200 mM NaCl, 0.2 mM EDTA, pH 8. HGFA containing fractions were pooled, concentrated, made 50% glycerol, and stored at minus 20° C. Protein was quantitated using a modified Lowry protein assay (#500-0006, Bio-Rad Laboratories, Hercules, Calif.).
(§1) Inhibitors (11-pt serial dilutions, 0-20 μM final concentration in reaction) were serially diluted in DMSO (2% DMSO final concentration) and then mixed with either recombinant serine protease domain of HGFA [Z. Han, P. K. Harris, D. E. Jones, R. Chugani, T. Kim, M. Agarwal, W. Shen, S. A. Wildman, J. W. Janetka, Acs Med Chem Lett 2014, 5, 1219-1224], matriptase (Charles Craik, UCSF) or hepsin* (#4776-SE-010, R&D Systems, Minneapolis, Minn.) in black 384 well plates (Corning #3575. Corning, N.Y.). […] The final substrate concentrations for all assays were at the Km for the respective enzymes. Changes in fluorescence (excitation at 380 nm and emission at 460 nm) were measured at room temperature over time in a Biotek Synergy 2 plate reader (Winnoski, Vt.). Using GraphPad Prism version 6.04 software program, (GraphPad Software, San Diego, Calif., www.graphpad.com), a four parameter curve fit was used to determine the inhibitor IC50s from a plot of the mean reaction velocity versus the inhibitor concentration. The IC50 values represent the average of three separate experimental determinations.

Another assay concerns the target T2, hepsin (Homo sapiens, UniProt P05981).
T2 construct: purchased R&D Systems 4776-SE-010
Briefly: Fluorescent kinetic enzyme inhibitor assay of hepsin. The conditions noted are these: Fluorogenic Assay, read-out: Hepsin Ki. As for the experimental part:
as §1

The next assay has as its target T3, matriptase (Homo sapiens, UniProt Q9Y5Y6).
T3 construct: Charles Craik, UCSF (obtained from another laboratory)
T3 sequence (Q9Y5Y6 615-855 limits assumed): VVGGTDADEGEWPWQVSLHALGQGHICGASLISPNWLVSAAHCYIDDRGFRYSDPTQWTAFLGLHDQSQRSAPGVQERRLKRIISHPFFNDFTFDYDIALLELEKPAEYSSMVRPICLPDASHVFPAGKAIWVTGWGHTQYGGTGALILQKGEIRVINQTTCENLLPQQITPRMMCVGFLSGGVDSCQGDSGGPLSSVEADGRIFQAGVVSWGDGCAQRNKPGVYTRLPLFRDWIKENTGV
Kind of assay: Fluorescent kinetic enzyme inhibitor assay of matriptase. Conditions: Fluorogenic Assay. As to the method:
as §1

Another assay has as its target thrombin (Homo sapiens, UniProt P00734). Kind of assay: Chromogenic kinetic enzyme assay of thrombin. The conditions noted are these: for Ki: read-out: Thrombin Ki. As for the experimental part:
Inhibitors (11-pt serial dilutions, 0-20 μM final concentration) were serially diluted in DMSO (2% DMSO final concentration) and then mixed with recombinant thrombin (0.15 nM final concentration) or Factor Xa (0.35 nM final concentration) in TNC buffer (25 mM Tris, 150 mM NaCl, 5 mM CaCl2, 0.01% TRITON X-100, pH 8) using clear 384 well plates. […] Changes in absorbance at 405 nm were measured over time in a Biotek Synergy 2 plate (Winnoski, Vt.). Using GraphPad Prism version 6.04 software program, (GraphPad Software, San Diego, Calif., www.graphpad.com), a four parameter curve fit was used to determine the inhibitor IC50s from a plot of the mean reaction velocity versus the inhibitor concentration. Ki values were calculated from the IC50 values using the Cheng and Prusoff equation (Ki=IC50/(1+[S]/Km).

“And” between values parts separate entries of the source, which are not always exact repeats. Identical values can stand only once. Like-named read-outs stand apart in the source and are kept apart here.

T2 sequence (P05981 163-417 limits assumed): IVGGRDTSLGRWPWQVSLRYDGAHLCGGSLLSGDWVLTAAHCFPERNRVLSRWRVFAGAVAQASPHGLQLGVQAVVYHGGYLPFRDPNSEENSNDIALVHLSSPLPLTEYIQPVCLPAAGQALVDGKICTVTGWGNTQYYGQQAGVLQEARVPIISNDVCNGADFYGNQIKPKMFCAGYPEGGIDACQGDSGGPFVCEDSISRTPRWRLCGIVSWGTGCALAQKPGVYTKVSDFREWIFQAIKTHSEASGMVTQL
T2 sequence (P05981 45-162 partner limits assumed): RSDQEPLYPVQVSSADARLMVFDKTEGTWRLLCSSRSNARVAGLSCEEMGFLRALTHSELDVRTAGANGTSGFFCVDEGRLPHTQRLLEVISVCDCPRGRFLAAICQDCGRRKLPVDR

In the case of `N=C(N)c1cccc(C[C@H](NS(=O)(=O)c2ccc3ccccc3c2)C(=O)N2CCN(C(=O)NCc3ccccc3)CC2)c1` [Compound 17a, (S)—N-Benzyl-4-(3-(3-carbamimidoylphenyl)-2-(naphthalene-2-sulfonamido)propanoyl)piperazine-1-carboxamide], the Ki was 14 µM on HGFA (Table 9.1, Fluorogenic Assay, listed as FMF-1-279-003); 14 µM at HGFA (Table 9.1, Fluorogenic Assay); 1 µM and 1.04 µM on hepsin (Table 9.1); 2.06 µM and 2.56 µM at matriptase (Table 9.1).
As for `Cc1ccc(S(=O)(=O)N[C@@H](Cc2cccc(C(=N)N)c2)C(=O)N2CCC[C@H](NC(=O)OCc3ccccc3)C2)cc1` [Compound 18, Benzyl (S)-1-((S)-3-(3-carbamimidoylphenyl)-2-(4-methylphenylsulfonamido)propanoyl)piperidin-3-ylcarbamate], the Ki on HGFA (Table 9.2, Fluorogenic Assay) is > 50 µM; on hepsin (Table 9.2), 2.3 µM; on matriptase (Table 9.2), 1 µM.
As to `Cc1ccc(S(=O)(=O)N[C@@H](Cc2cccc(C(=N)N)c2)C(=O)N2CCC(c3ccccc3)CC2)cc1` [Compound 25b, (S)-3-(2-(4-Methylphenylsulfonamido)-3-oxo-3-(4-phenylpiperidin-1-yl)propyl)benzimidamide], the Ki at HGFA (Table 9.1, Fluorogenic Assay) was determined as 19.9 µM; at hepsin (Table 9.1), 4.8 µM; on matriptase (Table 9.1) it was 0.57 µM.
As to `Cc1ccc(S(=O)(=O)N[C@@H](Cc2cccc(C(=N)N)c2)C(=O)N2CCCC(C(=O)NCCc3ccccc3)C2)cc1` (stereo partly drawn) [Compound 25c, 1-((S)-3-(3-Carbamimidoylphenyl)-2-(4-methylphenylsulfonamido)propanoyl)-N-phenethylpiperidine-3-carboxamide], the Ki on HGFA (Table 9.2, Fluorogenic Assay) is > 50 µM; at hepsin (Table 9.2), 0.67 µM; at matriptase (Table 9.2), 1.3 µM.
`CCCCCCNC(=O)N1CCN(C(=O)[C@H](Cc2cccc(C(=N)N)c2)NS(=O)(=O)c2ccc3ccccc3c2)CC1` [Compound 25d, (S)-4-(3-(3-Carbamimidoylphenyl)-2-(naphthalene-2-sulfonamido)propanoyl)-N-hexylpiperazine-1-carboxamide]: the Ki at HGFA (Table 9.1, Fluorogenic Assay) was > 50 µM; on hepsin (Table 9.1), 1.3 µM and 1.28 µM; at matriptase (Table 9.1), 14.9 µM; on matriptase (Table 9.1, listed as FMF-1-278-003), 14.9 µM.
Consider `N=C(N)c1cccc(C[C@H](NS(=O)(=O)c2ccc3ccccc3c2)C(=O)N2CCN(C(=O)c3csc4ccccc34)CC2)c1` [Compound 25e, (S)-3-(3-(4-(Benzo[b]thiophene-3-carbonyl)piperazin-1-yl)-2-(naphthalene-2-sulfonamido)-3-oxopropyl)benzimidamide], for which the Ki is > 50 µM at HGFA (Table 9.1, Fluorogenic Assay); 3.75 µM at hepsin (Table 9.1); 1.2 µM on matriptase (Table 9.1).
In the case of `N=C(N)c1cccc(C[C@H](NS(=O)(=O)c2ccc3ccccc3c2)C(=O)N2CCC[C@@H](NC(=O)OCc3ccccc3)C2)c1` [Compound 25f, Benzyl (R)-1-((S)-3-(3-carbamimidoylphenyl)-2-(naphthalene-2-sulfonamido)propanoyl)piperidin-3-ylcarbamate], the Ki at HGFA (Table 9.2, Fluorogenic Assay) is > 50 µM; at hepsin (Table 9.2), 2.8 µM; on matriptase (Table 9.2), 4.9 µM.
For `N=C(N)c1cccc(C[C@H](NS(=O)(=O)c2ccc3ccccc3c2)C(=O)N2CCN(c3ccccc3)CC2)c1` [Compound 25g, (S)-3-(2-(Naphthalene-2-sulfonamido)-3-oxo-3-(4-phenylpiperazin-1-yl)propyl)benzimidamide], the Ki at HGFA was 18.3 µM; on hepsin (Table 9.1), 7 µM; on matriptase (Table 9.1) it was 1.8 µM.
The like results for `CC(C)c1cc(C(C)C)c(S(=O)(=O)N[C@@H](Cc2cccc(C(=N)N)c2)C(=O)N2CCN(c3ccccc3)CC2)c(C(C)C)c1` [Compound 27, (S)-3-(3-Oxo-3-(4-phenylpiperazin-1-yl)-2-((2,4,6-triisopropylphenyl)sulfonamido)propyl)benzimidamide] were, in that order, 22.2 µM, 7.4 µM and 0.76 µM.
As for `CC(=O)N[C@@H](CCCCN)C(=O)N[C@@H](CCCNC(=N)N)C(=O)N[C@@H](CC(C)C)C(=O)N[C@@H](CCCNC(=N)N)C(=O)c1nc2ccc(C(=O)NCc3ccc(C(=O)O)cc3)cc2s1` [Compound 7164, Ac-KRLR(SEQ ID NO: 8)-kbt-Benzyl-3-COOH], on thrombin (Table 6.2, headed Fluorogenic Assay), the Ki was 1.62 µM.
Turning to `N=C(N)NCCC[C@H](NC(=O)[C@@H]1CCCCN1C(=O)[C@H](N)Cc1ccccc1)C(=O)Nc1ccc([N+](=O)[O-])cc1` [Compound S2238, D-Phe-Pip-Arg-pNA, reference compound], at thrombin (read-out: Km of chromogenic substrate for thrombin), the Km was 14.5 µM.
As to `Cc1nc(-c2cccc(C[C@H](NS(=O)(=O)c3ccc4ccccc4c3)C(=O)N3CCN(C(=O)NCc4ccccc4)CC3)c2)no1` [FMF-1-254-004], the Ki at HGFA (Table 9.3, Fluorogenic Assay) is > 50 µM; at hepsin (Table 9.3), > 10 µM; on matriptase (Table 9.3), > 10 µM.
On to `CC(C)c1cc(C(C)C)c(S(=O)(=O)N[C@@H](Cc2cccc(C(=N)N)c2)C(=O)N2CCN(C(=O)C3CCN(C(=N)N)CC3)CC2)c(C(C)C)c1` [JWJ-I-135], for which the Ki on HGFA (Table 9.1, Fluorogenic Assay) was 17.8 µM; at thrombin (Table 9.4), > 2 µM.

In general, Ki refers to the equilibrium dissociation constant of an inhibitor or competing ligand from its target. What is called Km is the substrate concentration at which the rate is half of its maximum.

The record behind these values is patent publication US11130780B2, “Inhibitors of growth factor activation enzymes” (Washington University, priority 2015, dated 2021).
